# Laboratory results: patent USRE39591E1, “6-O-substituted ketolides having antibacterial activity” (Abbott Laboratories, priority 1996, dated 2007)
# Tested on: up to 32 different microorganisms
# Assay: in vitro antibacterial activity (MIC), agar dilution on Brain Heart Infusion (BHI) agar with Steers replicator
# Type: cell-based
# Conditions: unit assumed
# Summary of the method: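 MIC read visually: lowest drug level with no growth, slight haze or sparsely isolated colonies on the inoculum spot relative to drug-free control. Serial aqueous compound dilutions in BHI agar, 1:100 inoculum (1:10 slow strains), 20 to 24 hours at 35°-37° C.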
# [1] = Candida albicans CCH 442 (code TT)
# [2] = Enterococcus faecism ATCC 8043 (code II)
# [3] = Escherichia coli DC-2 (code SS)
# [4] = Escherichia coli JUHL (code QQ)
# [5] = Haemophilis influenzae DILL AMP R (code WW)
# [6] = Micrococcus luteus ATCC 4698 (code PP)
# [7] = Micrococcus luteus ATCC 9341 (code OO)
# [8] = Mycobacterium smegmatis ATCC 114 (code UU)
# [9] = Nocardia Asteroides ATCC9970 (code VV)
# [10] = Staphylococcus aureus 1775 (code GG)
# [11] = Staphylococcus aureus A5177 (code BB)
# [12] = Staphylococcus aureus A-5278 (code CC)
# [13] = Staphylococcus aureus ATCC 6538P (code AA)
# [14] = Staphylococcus aureus CMX 553 (code FF)
# [15] = Staphylococcus aureus CMX 642A (code DD)
# [16] = Staphylococcus aureus NCTC10649M (code EE)
# [17] = Staphylococcus epidermidis 3519 (code HH)
# [18] = Streptococcus Pneumonia 5649 (code ZZA)
# [19] = Streptococcus Pneumonia 5979 (code ZZ)
# [20] = Streptococcus Pneumonia ATCC6303 (code XX)
# [21] = Streptococcus Pneumonia GYR 1171 (code YY)
# [22] = Streptococcus agalactiae CMX 508 (code KK)
# [23] = Streptococcus bovis A-5169 (code JJ)
# [24] = Streptococcus pyogenes 930 (code MM)
# [25] = Streptococcus pyogenes EES61 (code LL)
# [26] = Streptococcus pyogenes PIU 2548 (code NN)
compound,measurement,setting,value
"C=CCO[C@@]1(C)C[C@@H](C)C(=O)[C@H](C)[C@H]2NC(=O)O[C@]2(C)[C@@H](CC)OC(=O)[C@H](C)C(=O)[C@H](C)[C@H]1O[C@@H]1O[C@H](C)C[C@H](N(C)C)[C@H]1O [Example 102, Formula (IX): L is CO, T is NH, R is —CH2CH═CH2]",MIC,[1],> 100 µg/mL
same,MIC,[2],0.78 µg/mL
same,MIC,[3],> 100 µg/mL
same,MIC,[4],> 100 µg/mL
same,MIC,Escherichia coli SS (code RR),1.56 µg/mL
same,MIC,[5],64 µg/mL
same,MIC,[6],0.78 µg/mL
same,MIC,[7],0.2 µg/mL
same,MIC,[8],25 µg/mL
same,MIC,[9],1.56 µg/mL
same,MIC,[10],> 100 µg/mL
same,MIC,[11],1.56 µg/mL
same,MIC,[12],> 100 µg/mL
same,MIC,[13],0.78 µg/mL
same,MIC,[14],1.56 µg/mL
same,MIC,[15],1.56 µg/mL
same,MIC,[16],0.78 µg/mL
same,MIC,[17],1.56 µg/mL
same,MIC,[18],0.25 µg/mL
same,MIC,[19],> 64 µg/mL
same,MIC,[20],0.5 µg/mL
same,MIC,[21],0.25 µg/mL
same,MIC,[22],0.2 µg/mL
same,MIC,[23],0.2 µg/mL
same,MIC,[24],> 100 µg/mL
same,MIC,[25],0.2 µg/mL
same,MIC,[26],0.2 µg/mL
"CCC1OC(=O)C(C)C(=O)C(C)C(OC2OC(C)CC(N(C)C)C2O)C(C)(OCCCc2cnc3ccccc3c2)CC(C)C(=O)C(C)C2NC(=O)OC12C (centres unmarked) [Example 242, Compound of Formula (IX): L is CO, T is NH, R is —CH2CH2CH2(3-quinolyl)]",MIC,organism code AA,0.2 µg/mL
same,MIC,organism code CC,> 100 µg/mL
same,MIC,organism code DD,0.2 µg/mL
same,MIC,organism code EE,0.2 µg/mL
same,MIC,organism code FF,0.2 µg/mL
same,MIC,organism code GG,> 100 µg/mL
same,MIC,organism code HH,0.39 µg/mL
same,MIC,organism code II,0.1 µg/mL
same,MIC,organism code JJ,0.02 µg/mL
same,MIC,organism code KK,0.05 µg/mL
same,MIC,organism code LL,0.01 µg/mL
same,MIC,organism code MM,> 100 µg/mL
same,MIC,organism code NN,0.2 µg/mL
same,MIC,organism code OO,0.05 µg/mL
same,MIC,organism code PP,0.39 µg/mL
same,MIC,organism code QQ,> 100 µg/mL
same,MIC,organism code RR,0.78 µg/mL
same,MIC,organism code SS,> 100 µg/mL
same,MIC,organism code TT,> 100 µg/mL
same,MIC,organism code UU,0.78 µg/mL
same,MIC,organism code VV,0.39 µg/mL
same,MIC,organism code WW,8 µg/mL
same,MIC,organism code XX,0.03 µg/mL
same,MIC,organism code YY,0.03 µg/mL
same,MIC,organism code ZZ,> 128 µg/mL
same,MIC,organism code ZZA,0.25 µg/mL
"CCC1OC(=O)C(C)C(=O)C(C)C(OC2OC(C)CC(N(C)C)C2O)C(C)(OCC#Cc2cnc3ccccc3c2)CC(C)C(=O)C(C)C2NC(=O)OC12C (centres unmarked) [Example 247, Compound of Formula (IX): L is CO, T is NH, R is —CH2—C≡C-(3-quinolyl)]",MIC,organism code AA,0.05 µg/mL
same,MIC,organism code BB,0.05 µg/mL
same,MIC,organism code CC,> 100 µg/mL
same,MIC,organism code DD,0.05 µg/mL
same,MIC,organism code EE,0.05 µg/mL
same,MIC,organism code FF,0.05 µg/mL
same,MIC,organism code GG,> 100 µg/mL
same,MIC,organism code HH,0.05 µg/mL
same,MIC,organism code II,0.02 µg/mL
same,MIC,organism code JJ,≤ 0.005 µg/mL
same,MIC,organism code KK,0.01 µg/mL
same,MIC,organism code LL,0.01 µg/mL
same,MIC,organism code MM,0.39 µg/mL
same,MIC,organism code NN,0.1 µg/mL
same,MIC,organism code OO,0.01 µg/mL
same,MIC,organism code PP,0.02 µg/mL
same,MIC,organism code QQ,25 µg/mL
same,MIC,organism code RR,0.2 µg/mL
same,MIC,organism code SS,25 µg/mL
same,MIC,organism code TT,> 100 µg/mL
same,MIC,organism code UU,0.39 µg/mL
same,MIC,organism code VV,0.01 µg/mL
same,MIC,organism code WW,1 µg/mL
same,MIC,organism code XX,≤ 0.004 µg/mL
same,MIC,organism code YY,≤ 0.004 µg/mL
same,MIC,organism code ZZ,4 µg/mL
same,MIC,organism code ZZA,0.25 µg/mL
"CCC1OC(=O)C(C)C(=O)C(C)C(OC2OC(C)CC(N(C)C)C2O)C(C)(OCC=Cc2ccc3c(c2)OCO3)CC(C)C(=O)C(C)C2NC(=O)OC12C (centres unmarked) [Example 188, R is —CH2CH═CH-(3,4-methylenedioxyphenyl)]",MIC,[1],> 100 µg/mL
same,MIC,[2],0.05 µg/mL
same,MIC,[3],> 100 µg/mL
same,MIC,[4],> 100 µg/mL
same,MIC,Escherichia coli SS (code RR),0.78 µg/mL
same,MIC,[5],8 µg/mL
same,MIC,[6],0.2 µg/mL
same,MIC,[7],0.02 µg/mL
same,MIC,[8],0.78 µg/mL
same,MIC,[9],0.39 µg/mL
same,MIC,[10],> 100 µg/mL
same,MIC,[11],0.1 µg/mL
same,MIC,[12],> 100 µg/mL
same,MIC,[13],0.1 µg/mL
same,MIC,[14],0.1 µg/mL
same,MIC,[15],0.1 µg/mL
same,MIC,[16],0.2 µg/mL
same,MIC,[17],0.2 µg/mL
same,MIC,[18],1 µg/mL
same,MIC,[19],> 64 µg/mL
same,MIC,[20],0.03 µg/mL
same,MIC,[21],0.03 µg/mL
same,MIC,[22],≤ 0.005 µg/mL
same,MIC,[23],≤ 0.005 µg/mL
same,MIC,[24],25 µg/mL
same,MIC,[25],0.01 µg/mL
same,MIC,[26],0.1 µg/mL
"CCC1OC(=O)C(C)C(=O)C(C)C(OC2OC(C)CC(N(C)C)C2O)C(C)(OCC=Cc2cnc3ccc([N+](=O)[O-])cc3c2)CC(C)C(=O)C(C)C2NC(=O)OC12C (centres unmarked) [Example 195, R is —CH2CH═CH-(6-nitroquinolyl)]",MIC,[1],> 100 µg/mL
same,MIC,[2],0.05 µg/mL
same,MIC,[3],50 µg/mL
same,MIC,[4],50 µg/mL
same,MIC,Escherichia coli SS (code RR),0.2 µg/mL
same,MIC,[6],0.1 µg/mL
same,MIC,[7],0.01 µg/mL
same,MIC,[8],0.39 µg/mL
same,MIC,[9],0.05 µg/mL
same,MIC,[10],> 100 µg/mL
same,MIC,[12],> 100 µg/mL
same,MIC,[13],0.05 µg/mL
same,MIC,[14],0.05 µg/mL
same,MIC,[15],0.05 µg/mL
same,MIC,[16],0.05 µg/mL
same,MIC,[17],0.05 µg/mL
same,MIC,[22],0.05 µg/mL
same,MIC,[23],0.01 µg/mL
same,MIC,[24],1.56 µg/mL
same,MIC,[25],0.02 µg/mL
same,MIC,[26],0.1 µg/mL
"CC[C@H]1OC(=O)[C@H](C)C(=O)[C@H](C)[C@@H](O[C@@H]2O[C@H](C)C[C@H](N(C)C)[C@H]2O)[C@@](C)(OCCNOCc2ccc([N+](=O)[O-])cc2)C[C@@H](C)C(=O)[C@H](C)[C@H]2NC(=O)O[C@@]21C [Example 238, Compound of Formula (IX): L is CO, T is NH, R is —CH2CH2NHOCH2(4-NO2)-phenyl]",MIC,organism code AA,0.2 µg/mL
same,MIC,organism code BB,0.2 µg/mL
same,MIC,organism code CC,> 100 µg/mL
same,MIC,organism code DD,0.39 µg/mL
same,MIC,organism code EE,0.39 µg/mL
same,MIC,organism code FF,0.39 µg/mL
same,MIC,organism code GG,> 100 µg/mL
same,MIC,organism code HH,0.39 µg/mL
same,MIC,organism code II,0.05 µg/mL
same,MIC,organism code JJ,0.02 µg/mL
same,MIC,organism code KK,0.02 µg/mL
same,MIC,organism code LL,0.02 µg/mL
same,MIC,organism code MM,> 100 µg/mL
same,MIC,organism code NN,0.2 µg/mL
same,MIC,organism code OO,0.05 µg/mL
same,MIC,organism code PP,0.2 µg/mL
same,MIC,organism code QQ,100 µg/mL
same,MIC,organism code RR,0.39 µg/mL
same,MIC,organism code SS,> 100 µg/mL
same,MIC,organism code TT,> 100 µg/mL
same,MIC,organism code UU,0.2 µg/mL
same,MIC,organism code VV,0.1 µg/mL
same,MIC,organism code WW,8 µg/mL
same,MIC,organism code XX,0.03 µg/mL
same,MIC,organism code YY,0.03 µg/mL
same,MIC,organism code ZZ,> 64 µg/mL
same,MIC,organism code ZZA,0.25 µg/mL
